Laboratory results taken from US10882845B2, “Crystal form of deuterated AZD9291, preparation method therefor, and use thereof” (TYK MEDICINES INC., priority 2017, dated 2021).
Counter-ions that a name gives are not always drawn.

How the values were obtained:
in vivo = settings: rat, po
Source text: Moreover, a single impurity is below 0.1%, which is in line with requirements for the development of API and CMC.
The high bioavailability of oral administration proves that this crystal form is suitable for the development of oral preparations.

[1] = Accelerated stability test (drug accelerated stability test chamber, 40° C., relative humidity 75%); assay type: physicochemical; settings: 75% RH
[2] = as above; assay type: physicochemical; settings: 75% RH; remark: listed apart in the source
Description: The stability of the crystal form of the compound represented by the formula (I) or the formula (II) was further measured, and the apparatus used was a drug accelerated stability test chamber; the accelerated test condition was 40° C., and the relative humidity was 75%. After an accelerated test for six months in the drug accelerated stability test chamber was completed, a sample of the crystal form of the compound of the formula (I) or the formula (II) was obtained and subjected to X-ray powder diffraction analysis, and the obtained X-ray powder diffraction pattern was as shown in FIG. 2.

[3] = Stability at room temperature; assay type: physicochemical; settings: for Purity (HPLC) / character (visual inspection) / hygroscopicity (visual inspection): room temperature
Source text: The crystal form of the compound of the formula (I) or the formula (II) obtained by the method 1 or the method 2 of the present invention is not changed in moisture absorption or the like after being left at room temperature for 1 month. […] Its purity was as high as 99.83%, and the content of each single impurity was below 0.1%, which was suitable for the subsequent development of active pharmaceutical ingredient and preparations as well as subsequent pharmacokinetic experiments and zoological experiments.
The crystal form of deuterated AZD9291 mesylate prepared in the present invention was placed in a laboratory at room temperature, and the stability at room temperature was examined.

[4] = Passage through the blood-brain barrier into the brain; assay type: in vivo; settings: in the body
Source text: At present, some deuterated AZD9291 compounds have been reported in CN104140418B and CN105237515A, but no crystal forms of the pharmaceutically acceptable salt of deuterated AZD9291 have been reported. A crystal form is a solid state of a drug. The study of the drug crystal form is the study of the basic state of the drug. It is impossible to find a crystal form of a drug (solid material) that is more suitable for treating the disease, unless having a full and comprehensive understanding of the crystal form of the chemical drug. The crystal form of a drug can affect physical and chemical properties of the drug, and directly affect the clinical basis of the drug to play a role in the treatment of disease. At the same time, due to the solubility of some drugs, such drugs shall be made into a pharmaceutically acceptable salt, which can greatly improve its solubility and improve the absorption and utilization of drugs. The applicant has been engaged in the research of drugs for lung cancer, started drug research on EGFR targets very early, and has obtained a series of research results6, such as patent applications CN102659692, U.S. Ser. No. 08/916,572, CN107382879, WO2017219500 and WO2018050052. […] Therefore, it has no effect on tumors metastasized to the brain. […]

[2H]C([2H])([2H])n1cc(-c2ccnc(Nc3cc(NC(=O)C=C)c(N(C)CCN(C)C)cc3OC)n2)c2ccccc21 [deuterated AZD9291 mesylate crystal form]
AUC (in vivo): 1270 ng·h/mL | bioavailability (in vivo): 30.9% | highest blood concentration (in vivo): 117 ng/mL | character (visual inspection) ([1]; month 0): off-white | compound purity (HPLC) ([1]; month 0): 99%, | deuteration rate (HNMR) ([1]; month 0): rate 99% | character (visual inspection) ([1]; month 1): off-white, | compound purity (HPLC) ([1]; month 1): 99%, | deuteration rate (HNMR) ([1]; month 1): rate 99% | hygroscopicity (visual inspection) ([1]; month 1): no | character (visual inspection) ([1]; month 2): off white, | compound purity (HPLC) ([1]; month 2): 99%, | deuteration rate (HNMR) ([1]; month 2): rate 99% | hygroscopicity (visual inspection) ([1]; month 2): no | character (visual inspection) ([1]; month 3): off white, | compound purity (HPLC) ([1]; month 3): 99%, | deuteration rate (HNMR) ([1]; month 3): rate 99% | hygroscopicity (visual inspection) ([1]; month 3): no | character (visual inspection) ([1]; month 4): off white, | compound purity (HPLC) ([1]; month 4): 99%, | deuteration rate (HNMR) ([1]; month 4): rate 99% | hygroscopicity (visual inspection) ([1]; month 4): no | character (visual inspection) ([1]; month 6): off white, | compound purity (HPLC) ([1]; month 6): 99%, | deuteration rate (HNMR) ([1]; month 6): rate 99% | hygroscopicity (visual inspection) ([1]; month 6): no | crystal form (X-ray powder diffraction) ([2]; month 6, listed as crystal form of the compound represented by the formula (I) or the formula (II)): no crystal | crystal form (X-ray powder diffraction) ([2]; month 6, listed as crystal form of the present invention): maintained | change in moisture absorption or the like ([3]; left at room temperature for 1 month): not changed | Purity (HPLC) ([3]; day 0): 99.73% | character (visual inspection) ([3]; day 0): off-white powder | Purity (HPLC) ([3]; day 15): 99.70% | character (visual inspection) ([3]; day 15): off-white powder | hygroscopicity (visual inspection) ([3]; day 15): (no hygroscopicity) | Purity (HPLC) ([3]; day 30): 99.74% | character (visual inspection) ([3]; day 30): off-white powder | hygroscopicity (visual inspection) ([3]; day 30): (no hygroscopicity)

C=CC(=O)Nc1cc(Nc2nccc(-c3cn(C)c4ccccc34)n2)c(OC)cc1N(C)CCN(C)C [compound of formula III]
passage through the blood-brain barrier [4]: can enter the brain through the blood-brain barrier

C=CC(=O)Nc1cc(Nc2nccc(-c3c[nH]c4ccccc34)n2)c(OC)cc1N(C)CCN(C)C [AZ5104]
passage through the blood-brain barrier [4]: cannot pass through the blood-brain barrier
